Source: US9113629B2, “4-amino-6-(4-substituted-phenyl)-picolinates and 6-amino-2-(4-substituted-phenyl)-pyrimidine-4-carboxylates and their use as herbicides” (DOW AGROSCIENCES LLC, priority 2013, dated 2015)
Where two headings read alike, the source gives them in different places.

Columns and labels:
[1] = tested on: Key Broadleaf Weed and Crop Species; test: Post-emergent Test II herbicidal activity (Table 5); assay type: in vivo; details: post-emergence, 336 h, 14 days after application
Method in brief: (§1)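 Greenhouse-grown plants at first or second true leaf stage were sprayed post-emergence with compound in acetone/DMSO-based aqueous spray containing crop oil concentrate and surfactant, at 187 L/ha, highest rate plus ½× to 1/16× dilutions. After 14 d, injury was scored visually versus untreated plants, 0 (none) to 100% (complete kill).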

[2] = tested on: Key Grass and Sedge Weeds as well as Grass Crops; test: Post-emergent Test II herbicidal activity (Table 6); assay type: in vivo; details: post-emergence, 336 h
Method in brief: as §1

`COC(=O)c1nc(-c2ccc(OC(F)F)cc2)c(F)c(N)c1Cl` [Compound 85] gave a pest or weed control at 70 g/ha ([1]; ABUTH: velvetleaf (Abutilon theophrasti), application rate 70 g ai/ha, read-out: Visual Growth Reduction (%) 14 Days After Application, ABUTH) of 95 to 100%, a pest or weed control at 140 g/ha ([1]; ABUTH: velvetleaf (Abutilon theophrasti), application rate 140 g ai/ha, read-out: Visual Growth Reduction (%) 14 Days After Application, ABUTH) of 95 to 100% and a pest or weed control at 70 g/ha ([1]; AMARE: redroot pigweed (Amaranthus retroflexus), application rate 70 g ai/ha, read-out: Visual Growth Reduction (%) 14 Days After Application, AMARE) of 95 to 100%. For the same molecule, the pest or weed control at 140 g/ha ([1]; AMARE: redroot pigweed (Amaranthus retroflexus), application rate 140 g ai/ha, read-out: Visual Growth Reduction (%) 14 Days After Application, AMARE) was 95 to 100%, the pest or weed control at 70 g/ha ([1]; BRSNN: oilseed-rape, canola (Brassica napus), application rate 70 g ai/ha, read-out: Visual Growth Reduction (%) 14 Days After Application, BRSNN) was 45 to 59% and the pest or weed control at 140 g/ha ([1]; BRSNN: oilseed-rape, canola (Brassica napus), application rate 140 g ai/ha, read-out: Visual Growth Reduction (%) 14 Days After Application, BRSNN) was 60 to 74%. It also gave a pest or weed control at 70 g/ha ([1]; CHEAL: lambsquarters (Chenopodium album), application rate 70 g ai/ha, read-out: Visual Growth Reduction (%) 14 Days After Application, CHEAL) of 85 to 94%, a pest or weed control at 140 g/ha ([1]; CHEAL: lambsquarters (Chenopodium album), application rate 140 g ai/ha, read-out: Visual Growth Reduction (%) 14 Days After Application, CHEAL) of 95 to 100% and a pest or weed control at 70 g/ha ([1]; EPHHL: wild poinsettia (Euphorbia heterophylla), application rate 70 g ai/ha, read-out: Visual Growth Reduction (%) 14 Days After Application, EPHHL) of 95 to 100%. It also gave a pest or weed control at 140 g/ha ([1]; EPHHL: wild poinsettia (Euphorbia heterophylla), application rate 140 g ai/ha, read-out: Visual Growth Reduction (%) 14 Days After Application, EPHHL) of 95 to 100%, a pest or weed control at 70 g/ha ([1]; HELAN: sunflower (Helianthus annuus), application rate 70 g ai/ha, read-out: Visual Growth Reduction (%) 14 Days After Application, HELAN) of 85 to 94% and a pest or weed control at 140 g/ha ([1]; HELAN: sunflower (Helianthus annuus), application rate 140 g ai/ha, read-out: Visual Growth Reduction (%) 14 Days After Application, HELAN) of 95 to 100%. For the same molecule, the pest or weed control at 70 g/ha ([1]; VIOTR: wild pansy (Viola tricolor), application rate 70 g ai/ha, read-out: Visual Growth Reduction (%) 14 Days After Application, VIOTR) was 0 to 29%, the pest or weed control at 140 g/ha ([1]; VIOTR: wild pansy (Viola tricolor), application rate 140 g ai/ha, read-out: Visual Growth Reduction (%) 14 Days After Application, VIOTR) was 0 to 29% and the pest or weed control at 70 g/ha ([2]; CYPES: yellow nutsedge (Cyperus esculentus), 70 g ai/ha, read-out: Visual Growth Reduction (%) 14 Days After Application, CYPES) was 85 to 94%. For the same molecule, the pest or weed control at 140 g/ha ([2]; CYPES: yellow nutsedge (Cyperus esculentus), 140 g ai/ha, read-out: Visual Growth Reduction (%) 14 Days After Application, CYPES) was 85 to 94%, the pest or weed control at 70 g/ha ([2]; DIGSA: crabgrass (Digitaria sanguinalis), 70 g ai/ha, read-out: Visual Growth Reduction (%) 14 Days After Application, DIGSA) was 30 to 44% and the pest or weed control at 140 g/ha ([2]; DIGSA: crabgrass (Digitaria sanguinalis), 140 g ai/ha, read-out: Visual Growth Reduction (%) 14 Days After Application, DIGSA) was 30 to 44%. For the same molecule, the pest or weed control at 70 g/ha ([2]; ECHCG: barnyardgrass (Echinochloa crus-galli), 70 g ai/ha, read-out: Visual Growth Reduction (%) 14 Days After Application, ECHCG) was 95 to 100%, the pest or weed control at 140 g/ha ([2]; ECHCG: barnyardgrass (Echinochloa crus-galli), 140 g ai/ha, read-out: Visual Growth Reduction (%) 14 Days After Application, ECHCG) was 95 to 100% and the pest or weed control at 70 g/ha ([2]; ORYSA: rice (Oryza sativa), crop, 70 g ai/ha, read-out: Visual Growth Reduction (%) 14 Days After Application, ORYSA) was 0 to 29%. For the same molecule, the pest or weed control at 140 g/ha ([2]; ORYSA: rice (Oryza sativa), crop, 140 g ai/ha, read-out: Visual Growth Reduction (%) 14 Days After Application, ORYSA) was 0 to 29%, the pest or weed control at 70 g/ha ([2]; SETFA: giant foxtail (Setaria faberi), 70 g ai/ha, read-out: Visual Growth Reduction (%) 14 Days After Application, SETFA) was 45 to 59% and the pest or weed control at 140 g/ha ([2]; SETFA: giant foxtail (Setaria faberi), 140 g ai/ha, read-out: Visual Growth Reduction (%) 14 Days After Application, SETFA) was 75 to 84%. The pest or weed control at 70 g/ha ([2]; SORVU: grain sorghum (Sorghum vulgare), 70 g ai/ha, read-out: Visual Growth Reduction (%) 14 Days After Application, SORVU) was 75 to 84%, the pest or weed control at 140 g/ha ([2]; SORVU: grain sorghum (Sorghum vulgare), 140 g ai/ha, read-out: Visual Growth Reduction (%) 14 Days After Application, SORVU) was 85 to 94% and the pest or weed control at 70 g/ha ([2]; TRZSS (wheat, Triticum aestivum), crop, 70 g ai/ha, read-out: Visual Growth Reduction (%) 14 Days After Application, TRZSS) was 30 to 44%. For the same molecule, the pest or weed control at 140 g/ha ([2]; TRZSS (wheat, Triticum aestivum), crop, 140 g ai/ha, read-out: Visual Growth Reduction (%) 14 Days After Application, TRZSS) was 30 to 44%, the pest or weed control at 70 g/ha ([2]; ZEAMX: maize, corn (Zea mays), crop, 70 g ai/ha, read-out: Visual Growth Reduction (%) 14 Days After Application, ZEAMX) was 75 to 84% and the pest or weed control at 140 g/ha ([2]; ZEAMX: maize, corn (Zea mays), crop, 140 g ai/ha, read-out: Visual Growth Reduction (%) 14 Days After Application, ZEAMX) was 75 to 84%.
`C=Cc1c(C(=O)O)nc(-c2ccc(C(F)(F)F)c(F)c2)c(F)c1N` [Compound 86] showed a pest or weed control at 70 g/ha ([1]; ABUTH: velvetleaf (Abutilon theophrasti), 70 g ai/ha, post-emergent, read-out: Visual Growth Reduction (%) 14 Days After Application ABUTH) of 95 to 100%, a pest or weed control at 140 g/ha ([1]; ABUTH: velvetleaf (Abutilon theophrasti), 140 g ai/ha, post-emergent, read-out: Visual Growth Reduction (%) 14 Days After Application ABUTH) of 95 to 100% and a pest or weed control at 70 g/ha ([1]; BRSNN: oilseed-rape, canola (Brassica napus), 70 g ai/ha, post-emergent, read-out: Visual Growth Reduction (%) 14 Days After Application BRSNN) of 75 to 84%. The pest or weed control at 140 g/ha ([1]; BRSNN: oilseed-rape, canola (Brassica napus), 140 g ai/ha, post-emergent, read-out: Visual Growth Reduction (%) 14 Days After Application BRSNN) was 95 to 100%, the pest or weed control at 70 g/ha ([1]; CHEAL: lambsquarters (Chenopodium album), 70 g ai/ha, post-emergent, read-out: Visual Growth Reduction (%) 14 Days After Application CHEAL) was 95 to 100% and the pest or weed control at 140 g/ha ([1]; CHEAL: lambsquarters (Chenopodium album), 140 g ai/ha, post-emergent, read-out: Visual Growth Reduction (%) 14 Days After Application CHEAL) was 95 to 100%. For the same molecule, the pest or weed control at 70 g/ha ([1]; EPHHL: wild poinsettia (Euphorbia heterophylla), 70 g ai/ha, post-emergent, read-out: Visual Growth Reduction (%) 14 Days After Application EPHHL) was 95 to 100%, the pest or weed control at 140 g/ha ([1]; EPHHL: wild poinsettia (Euphorbia heterophylla), 140 g ai/ha, post-emergent, read-out: Visual Growth Reduction (%) 14 Days After Application EPHHL) was 95 to 100% and the pest or weed control at 70 g/ha ([1]; HELAN: sunflower (Helianthus annuus), 70 g ai/ha, post-emergent, read-out: Visual Growth Reduction (%) 14 Days After Application HELAN) was 95 to 100%. For the same molecule, the pest or weed control at 140 g/ha ([1]; HELAN: sunflower (Helianthus annuus), 140 g ai/ha, post-emergent, read-out: Visual Growth Reduction (%) 14 Days After Application HELAN) was 95 to 100%, the pest or weed control at 70 g/ha ([1]; VIOTR: wild pansy (Viola tricolor), 70 g ai/ha, post-emergent, read-out: Visual Growth Reduction (%) 14 Days After Application VIOTR) was 95 to 100% and the pest or weed control at 140 g/ha ([1]; VIOTR: wild pansy (Viola tricolor), 140 g ai/ha, post-emergent, read-out: Visual Growth Reduction (%) 14 Days After Application VIOTR) was 95 to 100%. The pest or weed control at 70 g/ha ([2]; Triticum aestivum, TRZSS (wheat), application rate 70 g ai/ha, read-out: Visual Growth Reduction (%) 14 Days After Application, TRZSS) was 0 to 29%, the pest or weed control at 140 g/ha ([2]; Triticum aestivum, TRZSS (wheat), application rate 140 g ai/ha, read-out: Visual Growth Reduction (%) 14 Days After Application, TRZSS) was 0 to 29% and the pest or weed control at 70 g/ha ([2]; CYPES: yellow nutsedge (Cyperus esculentus), application rate 70 g ai/ha, read-out: Visual Growth Reduction (%) 14 Days After Application, CYPES) was 95 to 100%. For the same molecule, the pest or weed control at 140 g/ha ([2]; CYPES: yellow nutsedge (Cyperus esculentus), application rate 140 g ai/ha, read-out: Visual Growth Reduction (%) 14 Days After Application, CYPES) was 95 to 100%, the pest or weed control at 70 g/ha ([2]; DIGSA: crabgrass (Digitaria sanguinalis), application rate 70 g ai/ha, read-out: Visual Growth Reduction (%) 14 Days After Application, DIGSA) was 0 to 29% and the pest or weed control at 140 g/ha ([2]; DIGSA: crabgrass (Digitaria sanguinalis), application rate 140 g ai/ha, read-out: Visual Growth Reduction (%) 14 Days After Application, DIGSA) was 0 to 29%. For the same molecule, the pest or weed control at 70 g/ha ([2]; ECHCG: barnyardgrass (Echinochloa crus-galli), application rate 70 g ai/ha, read-out: Visual Growth Reduction (%) 14 Days After Application, ECHCG) was 75 to 84%, the pest or weed control at 140 g/ha ([2]; ECHCG: barnyardgrass (Echinochloa crus-galli), application rate 140 g ai/ha, read-out: Visual Growth Reduction (%) 14 Days After Application, ECHCG) was 85 to 94% and the pest or weed control at 70 g/ha ([2]; ORYSA: rice (Oryza sativa), application rate 70 g ai/ha, read-out: Visual Growth Reduction (%) 14 Days After Application, ORYSA) was 30 to 44%. For the same molecule, the pest or weed control at 140 g/ha ([2]; ORYSA: rice (Oryza sativa), application rate 140 g ai/ha, read-out: Visual Growth Reduction (%) 14 Days After Application, ORYSA) was 45 to 59%, the pest or weed control at 70 g/ha ([2]; SETFA: giant foxtail (Setaria faberi), application rate 70 g ai/ha, read-out: Visual Growth Reduction (%) 14 Days After Application, SETFA) was 0 to 29% and the pest or weed control at 140 g/ha ([2]; SETFA: giant foxtail (Setaria faberi), application rate 140 g ai/ha, read-out: Visual Growth Reduction (%) 14 Days After Application, SETFA) was 0 to 29%. It also gave a pest or weed control at 70 g/ha ([2]; SORVU: grain sorghum (Sorghum vulgare), application rate 70 g ai/ha, read-out: Visual Growth Reduction (%) 14 Days After Application, SORVU) of 75 to 84%, a pest or weed control at 70 g/ha ([2]; ZEAMX: maize, corn (Zea mays), application rate 70 g ai/ha, read-out: Visual Growth Reduction (%) 14 Days After Application, ZEAMX) of 60 to 74% and a pest or weed control at 140 g/ha ([2]; ZEAMX: maize, corn (Zea mays), application rate 140 g ai/ha, read-out: Visual Growth Reduction (%) 14 Days After Application, ZEAMX) of 60 to 74%.
